Measured values: the NIST ThermoML archive (doi:10.1016/j.jct.2005.05.003)
± gives the expanded uncertainty stated by the source.

Assay: mn = molality of the nth substance listed, in mol/kg
Details: Liquid, Vibrating tube method

Compound: [Ca+2].[Cl-].[Cl-] [calcium chloride] + CO
- mass density (348.24 K, 14994 kPa, m1 = 0.1082): 766.79 ± 0.53 kg/m3
- mass density (348.24 K, 14997 kPa, m1 = 0.6588): 815.48 ± 0.54 kg/m3
- mass density (348.24 K, 15007 kPa, m1 = 0.2853): 782.23 ± 0.53 kg/m3
- mass density (348.24 K, 19987 kPa, m1 = 0.6588): 820.39 ± 0.55 kg/m3
- mass density (348.24 K, 19991 kPa, m1 = 0.2853): 787.34 ± 0.55 kg/m3
- mass density (348.24 K, 20008 kPa, m1 = 0.1082): 772.12 ± 0.55 kg/m3
- mass density (348.24 K, 24982 kPa, m1 = 0.1082): 777.11 ± 0.57 kg/m3
- mass density (348.24 K, 24994 kPa, m1 = 0.6588): 825.04 ± 0.56 kg/m3
- mass density (348.24 K, 24997 kPa, m1 = 0.2853): 792.2 ± 0.57 kg/m3
- mass density (348.24 K, 29990 kPa, m1 = 0.1082): 781.87 ± 0.59 kg/m3
- mass density (348.24 K, 29991 kPa, m1 = 0.2853): 796.8 ± 0.58 kg/m3
- mass density (348.24 K, 29992 kPa, m1 = 0.6588): 829.46 ± 0.58 kg/m3
- mass density (348.24 K, 34986 kPa, m1 = 0.2853): 801.19 ± 0.6 kg/m3
- mass density (348.24 K, 34998 kPa, m1 = 0.6588): 833.71 ± 0.59 kg/m3
- mass density (348.24 K, 35025 kPa, m1 = 0.1082): 786.39 ± 0.61 kg/m3
- mass density (348.24 K, 39992 kPa, m1 = 0.1082): 790.73 ± 0.63 kg/m3
- mass density (348.24 K, 40048 kPa, m1 = 0.6588): 837.76 ± 0.61 kg/m3
- mass density (348.24 K, 40055 kPa, m1 = 0.2853): 805.38 ± 0.63 kg/m3
- mass density (373.24 K, 517 kPa, m1 = 2.393): 904.38 ± 0.55 kg/m3
- mass density (373.24 K, 4985 kPa, m1 = 2.393): 909.14 ± 0.56 kg/m3
- mass density (373.24 K, 10000 kPa, m1 = 2.393): 914.19 ± 0.56 kg/m3
- mass density (373.24 K, 14988 kPa, m1 = 2.393): 918.95 ± 0.57 kg/m3
- mass density (373.24 K, 20003 kPa, m1 = 2.393): 923.48 ± 0.57 kg/m3
- mass density (373.24 K, 25015 kPa, m1 = 2.393): 927.81 ± 0.58 kg/m3
- mass density (373.24 K, 29988 kPa, m1 = 2.393): 931.93 ± 0.58 kg/m3
- mass density (373.24 K, 35016 kPa, m1 = 2.393): 935.94 ± 0.59 kg/m3
- mass density (373.24 K, 40000 kPa, m1 = 2.393): 939.74 ± 0.59 kg/m3
- mass density (373.26 K, 523 kPa, m1 = 0.2853): 738.51 ± 0.47 kg/m3
- mass density (373.26 K, 527 kPa, m1 = 0.1082): 722.32 ± 0.47 kg/m3
- mass density (373.26 K, 534 kPa, m1 = 0.6588): 773.01 ± 0.49 kg/m3
- mass density (373.26 K, 4997 kPa, m1 = 0.2853): 745.17 ± 0.49 kg/m3
- mass density (373.26 K, 4999 kPa, m1 = 0.1082): 729.31 ± 0.48 kg/m3
- mass density (373.26 K, 5013 kPa, m1 = 0.6588): 779.26 ± 0.5 kg/m3
- mass density (373.26 K, 9996 kPa, m1 = 0.2853): 752.01 ± 0.51 kg/m3
- mass density (373.26 K, 10000 kPa, m1 = 0.6588): 785.66 ± 0.52 kg/m3
- mass density (373.26 K, 10001 kPa, m1 = 0.1082): 736.45 ± 0.5 kg/m3
- mass density (373.26 K, 14984 kPa, m1 = 0.2853): 758.3 ± 0.53 kg/m3
- mass density (373.26 K, 14986 kPa, m1 = 0.6588): 791.62 ± 0.53 kg/m3
- mass density (373.26 K, 15009 kPa, m1 = 0.1082): 743.03 ± 0.53 kg/m3
- mass density (373.26 K, 19980 kPa, m1 = 0.2853): 764.17 ± 0.55 kg/m3
- mass density (373.26 K, 19981 kPa, m1 = 0.1082): 749.09 ± 0.55 kg/m3
- mass density (373.26 K, 20010 kPa, m1 = 0.6588): 797.23 ± 0.55 kg/m3
- mass density (373.26 K, 24999 kPa, m1 = 0.2853): 769.7 ± 0.57 kg/m3
- mass density (373.26 K, 25000 kPa, m1 = 0.6588): 802.48 ± 0.57 kg/m3
- mass density (373.26 K, 25016 kPa, m1 = 0.1082): 754.83 ± 0.57 kg/m3
- mass density (373.26 K, 29995 kPa, m1 = 0.1082): 760.17 ± 0.6 kg/m3
- mass density (373.26 K, 29996 kPa, m1 = 0.6588): 807.45 ± 0.58 kg/m3
- mass density (373.26 K, 30000 kPa, m1 = 0.2853): 774.89 ± 0.59 kg/m3
- mass density (373.26 K, 34993 kPa, m1 = 0.2853): 779.79 ± 0.62 kg/m3
- mass density (373.26 K, 35000 kPa, m1 = 0.6588): 812.19 ± 0.6 kg/m3
- mass density (373.26 K, 35003 kPa, m1 = 0.1082): 765.25 ± 0.62 kg/m3
- mass density (373.26 K, 40001 kPa, m1 = 0.6588): 816.69 ± 0.62 kg/m3
- mass density (373.26 K, 40004 kPa, m1 = 0.2853): 784.46 ± 0.64 kg/m3
- mass density (373.26 K, 40011 kPa, m1 = 0.1082): 770.07 ± 0.65 kg/m3
- mass density (398.25 K, 888 kPa, m1 = 2.393): 878.49 ± 0.54 kg/m3
- mass density (398.25 K, 5007 kPa, m1 = 2.393): 883.68 ± 0.55 kg/m3
- mass density (398.25 K, 10016 kPa, m1 = 2.393): 889.54 ± 0.55 kg/m3
- mass density (398.25 K, 14986 kPa, m1 = 2.393): 895.06 ± 0.56 kg/m3
- mass density (398.25 K, 19983 kPa, m1 = 2.393): 900.25 ± 0.57 kg/m3
- mass density (398.25 K, 24997 kPa, m1 = 2.393): 905.15 ± 0.57 kg/m3
- mass density (398.25 K, 29989 kPa, m1 = 2.393): 909.82 ± 0.58 kg/m3
- mass density (398.25 K, 34996 kPa, m1 = 2.393): 914.29 ± 0.59 kg/m3
- mass density (398.25 K, 40014 kPa, m1 = 2.393): 918.56 ± 0.59 kg/m3
- mass density (398.27 K, 880 kPa, m1 = 0.6588): 744.38 ± 0.48 kg/m3
- mass density (398.27 K, 899 kPa, m1 = 0.2853): 709.27 ± 0.46 kg/m3
- mass density (398.27 K, 901 kPa, m1 = 0.1082): 692.84 ± 0.45 kg/m3
- mass density (398.27 K, 4987 kPa, m1 = 0.6588): 751.36 ± 0.49 kg/m3
- mass density (398.27 K, 4995 kPa, m1 = 0.2853): 716.79 ± 0.48 kg/m3
- mass density (398.27 K, 4999 kPa, m1 = 0.1082): 700.78 ± 0.47 kg/m3
- mass density (398.27 K, 9984 kPa, m1 = 0.2853): 725.04 ± 0.5 kg/m3
- mass density (398.27 K, 9997 kPa, m1 = 0.6588): 759.11 ± 0.51 kg/m3
- mass density (398.27 K, 10005 kPa, m1 = 0.1082): 709.46 ± 0.5 kg/m3
- mass density (398.27 K, 14988 kPa, m1 = 0.2853): 732.54 ± 0.53 kg/m3
- mass density (398.27 K, 15011 kPa, m1 = 0.1082): 717.28 ± 0.52 kg/m3
- mass density (398.27 K, 15012 kPa, m1 = 0.6588): 766.18 ± 0.53 kg/m3
- mass density (398.27 K, 19999 kPa, m1 = 0.2853): 739.43 ± 0.55 kg/m3
- mass density (398.27 K, 20003 kPa, m1 = 0.1082): 724.41 ± 0.55 kg/m3
- mass density (398.27 K, 20013 kPa, m1 = 0.6588): 772.68 ± 0.55 kg/m3
- mass density (398.27 K, 24989 kPa, m1 = 0.2853): 745.78 ± 0.58 kg/m3
- mass density (398.27 K, 25000 kPa, m1 = 0.6588): 778.71 ± 0.57 kg/m3
- mass density (398.27 K, 25003 kPa, m1 = 0.1082): 730.99 ± 0.58 kg/m3
- mass density (398.27 K, 29985 kPa, m1 = 0.6588): 784.37 ± 0.59 kg/m3
- mass density (398.27 K, 30002 kPa, m1 = 0.2853): 751.73 ± 0.6 kg/m3
- mass density (398.27 K, 30013 kPa, m1 = 0.1082): 737.16 ± 0.61 kg/m3
- mass density (398.27 K, 34982 kPa, m1 = 0.1082): 742.86 ± 0.64 kg/m3
- mass density (398.27 K, 34983 kPa, m1 = 0.2853): 757.27 ± 0.63 kg/m3
- mass density (398.27 K, 35012 kPa, m1 = 0.6588): 789.76 ± 0.61 kg/m3
- mass density (398.27 K, 39992 kPa, m1 = 0.2853): 762.54 ± 0.66 kg/m3
- mass density (398.27 K, 39995 kPa, m1 = 0.1082): 748.29 ± 0.67 kg/m3
- mass density (398.27 K, 39999 kPa, m1 = 0.6588): 794.79 ± 0.64 kg/m3
